Results published in article PMC9549831 (European Journal of Clinical Pharmacology, 2022).

How the values were obtained:
[1] = parameters: method as in PMID 12076989; conditions: after co-administration of diltiazem with saxagliptin; cited from earlier work
[2] = independent of total drug concentrations; cited from earlier work
[3] = cited from earlier work
PDE5 = conditions: relative to sildenafil; cited from earlier work
[4] = Pharmacodynamic parameters: blood glucose levels (Gmax, AUCg0-t) in healthy volunteers; format: in vivo, human
Experimental: (§1) Blood glucose levels were measured for all volunteers on the ninth and the thirteenth day before dosing and at 0.5, 0.75, 1, 1.5, 2, 2.5, 3, 12, and 24 h; the main outcome measures were maximum plasma glucose concentration (Gmax) and the area under the blood glucose concentration–time curve (AUCg0-t). Blood pressure (systolic and diastolic) and heart rate were measured before dosing and at 2, 4, 6, 8, and 10 h after drug administration.

[5] = Safety and tolerability: adverse effects, blood pressure, pulse rate in healthy volunteers; format: in vivo, human; conditions: for incidence of reported headache: 18 volunteers
Experimental: as §1
Blood pressure, pulse rate, and body temperature together with blood glucose levels were reported all over the study. Moreover, possible side and/or adverse reactions or events to the study formulations were recorded to assure the safety and tolerability of different drug administrations.

[6] = healthy subjects and patients with type 2 diabetes; cited from earlier work
clinical = conditions: human, in vivo
Experimental: Mobile phase composition is 25 mM ammonium acetate: methanol 25:[…]. The flow rate was set at 0.7 ml/min. Injection volume was set at 2.5 ul. […] Before transferring the plasma sample to the MCX cartridge, acidification of the plasma sample with […] of (formic acid 2%) was performed. The sample was washed with 200 ul of 2% formic acid in water followed by 200 ul of methanol. […] Then 350 ul of water was added to the eluent and vortexed. After that, the diluted eluent was transferred to a vial insert, and 2.5 μl was injected into LC/MS/ MS system for analysis. […] The limit of quantification was defined considering the method sensitivity, the precision, and the accuracy. To evaluate precision and accuracy, specific quality control samples were included in the validation procedure. […] Blood samples were collected into tubes containing EDTA disodium as an anticoagulant slightly shaken and centrifuged at approximately 4000 r.p.m. for 10 min. After centrifugation, plasma samples were transferred directly into a 5 ml-plastic tube. These samples were immediately stored at the study site in a freezer at a nominal temperature - 80 °C until analysis. The label of the collecting tubes had the study's code number, subject number, study period, and the designated sample number. […] Pharmacokinetic parameters were determined and calculated. […] The pharmacokinetic analysis was performed using the SAS program. All results were expressed as mean ± SD. Paired T-Test was used to compare results, and the level of significance was considered at (P < 0.05).

[7] = parameters: method as in PMID 33459228; conditions: cited from earlier work
isolated aorta rings = conditions: cited from earlier work
[8] = oral administration, fasting conditions

Q: With N#C[C@@H]1C[C@@H]2C[C@@H]2N1C(=O)[C@@H](N)C12CC3CC(O)(CC(O)(C3)C1)C2 [5-hydroxy saxagliptin] as the compound, how does the “decrease of geometric mean AUC0-inf” value [1] read?
A: Its value is 34%.

Q: What about the “decrease of geometric mean Cmax” value [1] of the same compound?
A: The value was 43%.

Q: Which “bound to plasma proteins” value [2] does the source give for CCCc1nn(C)c2c(=O)[nH]c(-c3cc(S(=O)(=O)N4CCNCC4)ccc3OCC)nc12 [N-desmethyl metabolite] here?
A: Its value is 96%.

Q: And the “plasma concentrations relative to those found for sildenafil” value [3]?
A: The value was “approximately 40%”.

Q: And the “terminal half-life (t1/2)” value [3]?
A: Its value is “approximately 4 h”.

Q: What about the “in vitro potency for PDE5 relative to the parent drug” value (PDE5) of the same compound?
A: Its value is “approximately 50%”.

Q: Which “maximum glucose concentration (Gmax)” value ([4]; saxagliptin 5 mg + sildenafil 50 mg co-administered) does the source give for N#C[C@@H]1C[C@@H]2C[C@@H]2N1C(=O)[C@@H](N)C12CC3CC(CC(O)(C3)C1)C2 [saxagliptin] here?
A: Its value is 95.6 mg/dL.

Q: And the “maximum glucose concentration (Gmax)” value ([4]; saxagliptin 5 mg multiple doses alone)?
A: Its value is 93.7 mg/dL.

Q: What about the “blood pressure and pulse rate” value ([5]; after co-administration of saxagliptin and sildenafil vs alone (P > 0.001)) of the same compound?
A: Its value is “comparable”.

Q: And the “incidence of reported headache” value ([5]; co-administration of saxagliptin 5 mg and sildenafil 50 mg)?
A: Its value is 44.4%.

Q: What about the “incidence of reported headache” value ([5]; drug administered alone) of the same compound?
A: The value was 0%.

Q: And the mean half-life [6]?
A: Its mean half-life is 2.2 to 3.8 h.

Q: What about the “time to reach maximal plasma concentration” value [6] of the same compound?
A: The value was under 2 h.

Q: What about the AUC(0-inf) (clinical; 5 mg) of the same compound?
A: Its AUC(0-inf) is 0.113 µg·h/mL.

Q: What about the AUC(0-t) (clinical; 5 mg) of the same compound?
A: Its AUC(0-t) is 0.112 µg·h/mL.

Q: And the Tmax (clinical; 5 mg)?
A: The Tmax was 1.24 h.

Q: And the “overall systemic exposure to saxagliptin [AUCs]” value ([7]; co-administration of simvastatin 40 mg)?
A: Its value is “not affected”.

Q: What about the “effect on CYP3A4 activity” value ([7]; concluded from simvastatin pharmacokinetics at steady state) of the same compound?
A: The value was “neither induces nor inhibits CYP3A4 activity”.

Q: And the “rise of NO/ONOO- rate” value (isolated aorta rings)?
A: The value was “about 40%”.

Q: And the “stimulation of NO release” value (isolated aorta rings)?
A: Its value is “about 18%”.

Q: For CCCc1nn(C)c2c(=O)[nH]c(-c3cc(S(=O)(=O)N4CCN(C)CC4)ccc3OCC)nc12 [sildenafil], which “absolute oral bioavailability, range” value [3] is on record?
A: Its value is 25–63%.

Q: And the “mean absolute oral bioavailability” value [3]?
A: Its value is 41%.

Q: And the “mean steady-state volume of distribution” value [3]?
A: Its value is 105 L.

Q: What about the “terminal half-life (t1/2)” value [3] of the same compound?
A: The value was 3 to 5 h.

Q: What about the total body clearance [3] of the same compound?
A: The total body clearance was 41 L/h.

Q: And the “median time to Cmax” value [3, 8]?
A: Its value is 60 min.

Q: And the “time to maximum observed plasma concentration (Cmax)” value [3, 8]?
A: The value was 30 to 120 min.

Q: And the “incidence of reported headache” value ([5]; drug administered alone)?
A: The value was 33.3%.

Q: And the AUC(0-t) (clinical; 50 mg)?
A: Its AUC(0-t) is 0.977 µg·h/mL.

Q: And the Cmax (clinical; 50 mg)?
A: The Cmax was 0.302 µg/mL.

Q: And the Tmax (clinical; 50 mg)?
A: Its Tmax is 0.977 h.
